Laboratory results from patent US9376418B2, “Substituted pyridine spleen tyrosine kinase (SYK) inhibitors” (Merck Sharp & Dohme Corp., priority 2012, dated 2016).

Legend:
[1] = molecular target: T1, recombinant human GST-SYK (Homo sapiens, UniProt P43405); test: Homogeneous Time-Resolved Fluorescence (HTRF) assay for the recombinant human Syk enzyme; assay type: biochemical; details: HTRF assay, recombinant human GST-SYK; IC50 given as class symbols; read-out: rhSYK Activity
T1 construct: purchased Carna Biosciences 08-176
How it was run: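 HTRF read-out: Europium-anti-phosphotyrosine antibody (2 nM) plus SA-APC (70 nM) in EDTA-containing buffer quenched the reaction, and signal was read after 30 minutes. Kinase step used […], 250 nM biotinylated peptide, 25 μM ATP, 5 mM Mg, 45′ at room temperature.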

PGD2 = details: dosed intranasally, phase I/II study, allergic rhinitis; cited from earlier work
[2] = phase II clinical trial, allergic rhinitis; cited from earlier work

| IC50 [1] | Structure (SMILES) | also measured |
| --- | --- | --- |
| < 100 nM | CCOC(=O)C(F)(F)C(O)c1ccc(-c2cc(C)cc(Nc3nccc(C(F)(F)F)n3)c2)cn1 (stereo not shown) [Example 24.1, Ethyl 2,2-difluoro-3-hydroxy-3-[5-(3-methyl-5-{[4-(trifluoromethyl)pyrimidin-2-yl]amino}phenyl)pyridin-2-yl]propanoate] | – |
| < 100 nM | Cc1cc(Nc2nccc(C(F)(F)F)n2)cc(-c2ccc(C(O)C(F)(F)C(=O)O)nc2)c1 (stereo not shown) [Example 24.2, 2,2-Difluoro-3-hydroxy-3-[5-(3-methyl-5-{[4-(trifluoromethyl)pyrimidin-2-yl]amino}phenyl)pyridin-2-yl]propanoic acid] | – |
| < 100 nM | Cc1cc(Nc2nccc(C(F)(F)F)n2)cc(-c2ccc(CC(F)(F)C(=O)O)nc2)c1 [Example 24.3, 2,2-Difluoro-3-[5-(3-methyl-5-{[4-(trifluoromethyl)pyrimidin-2-yl]amino}phenyl)pyridin-2-yl]propanoic acid] | – |
| < 100 nM | Cc1cc(Nc2nccc(C(F)(F)F)n2)cc(-c2ccc(/C=C(/F)C(=O)O)nc2)c1 [Example 24.4, (2E)-2-Fluoro-3-[5-(3-methyl-5-{[4-(trifluoromethyl)pyrimidin-2-yl]amino}phenyl)pyridin-2-yl]prop-2-enoic acid] | – |
| 100 to 1000 nM | COC(=O)Cn1cc(-c2ccc(-c3cc(C)cc(Nc4nccc(C(F)(F)F)n4)c3)cn2)nn1 [Example 25.1, Methyl {4-[5-(3-methyl-5-{[4-(trifluoromethyl)pyrimidin-2-yl]amino}phenyl)pyridin-2-yl]-1H-1,2,3-triazol-1-yl}acetate] | – |
| < 100 nM | Cc1cc(Nc2nccc(C(F)(F)F)n2)cc(-c2ccc(-c3cn(CC(=O)O)nn3)nc2)c1 [Example 25.2, {4-[5-(3-Methyl-5-{[4-(trifluoromethyl)pyrimidin-2-yl]amino}phenyl)pyridin-2-yl]-1H-1,2,3-triazol-1-yl}acetic acid] | – |
| 100 to 1000 nM | CC(O)c1ccc(-c2cc(Nc3nccc(C(F)(F)F)n3)cc(C(=O)O)c2)cn1 (stereo not shown) [Example 26.1, 3-[6-(1-Hydroxyethyl)pyridin-3-yl]-5-{[4-(trifluoromethyl)pyrimidin-2-yl]amino}benzoic acid] | – |
| – | Oc1cccc(Nc2ncc(F)c(Nc3cccc(O)c3)n2)c1 [Example R112] | change in PGD2 (PGD2): statistically significant decrease; clinical safety (PGD2): safe across a range of indicators; efficacy versus placebo [2]: lack of efficacy |
